Data taken from US12435061B2 (priority 2020, dated 2025).
≈ marks a conversion by molar mass, not a printed value. Where “and” joins values, the source holds several entries; their conditions need not be identical. Equal entries are not always repeated. Where two headings read alike, the source gives them in different places.

Key:
hTRPV3 [1] = biological target: T1, hTRPV3 (Homo sapiens (Human), UniProt Q8NET8); test: Whole-cell patch clamp, hTRPV3 Phase 1 / Phase 2 currents; assay type: cell-based
In short: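 Currents are activated by 20 μM 2-APB or by perfusate at 28 °C or warmer, in Ringer's solution, and quantified at ±80 mV.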

[2] = Aqueous solubility assay in Normal Ringer Solution; details: Normal Ringer Solution; for solubility at 40 min: saline or isotonic, kinetic from dmso stock; for Solubility Ringer (nM): room temperature
Procedure: Following vortex and incubation for a sufficient time (e.g. 40 minutes at room temperature), solutions were filtered, quenched with acetonitrile, and analyzed by Liquid Chromotography. Solubility Limits were determined by comparison to a standard curve.

[3] = Metabolic Stability assay, rat liver microsomes; assay type: in vitro ADME; details: read-out: LM T1/2 (min) (rat)
In short: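 Reactions in human or rat liver microsomes at 37 °C were started with an NADPH-regenerating system, using 1 μM compound initially. Samples were taken at 0, 7, 15, 30 and 60 min, quenched in ice-cold acetonitrile/MeOH/H2O, and quantified by HPLC/MS/MS.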

hTRPV3 [4] = biological target: T1, hTRPV3; test: hTRPV3 HAMA IC50 assay (Hamamatsu FDSS6000 calcium flux, TRex-293 cells)
Procedure: IC50s were calculated using CBIS from ChemInnovation (San Diego).

[5] = Phase 1 current, inward, whole-cell patch clamp, read-out: hTRPV3 Patch P1 Inwd
[6] = Phase 1 current, read-out: hTRPV3 (nM) (Phase 1)
[7] = Phase 2 current, inward, whole-cell patch clamp, read-out: hTRPV3 Patch P2 Inwd
[8] = Phase 2 current, read-out: hTRPV3 (nM) (Phase 2)
[9] = hTRPV3 HAMA IC50 (nM) (5 min), 5 min
[10] = hTRPV3 HAMA IC50 (nM) (30 min), 30 min

T1 sequence (Q8NET8 whole entry): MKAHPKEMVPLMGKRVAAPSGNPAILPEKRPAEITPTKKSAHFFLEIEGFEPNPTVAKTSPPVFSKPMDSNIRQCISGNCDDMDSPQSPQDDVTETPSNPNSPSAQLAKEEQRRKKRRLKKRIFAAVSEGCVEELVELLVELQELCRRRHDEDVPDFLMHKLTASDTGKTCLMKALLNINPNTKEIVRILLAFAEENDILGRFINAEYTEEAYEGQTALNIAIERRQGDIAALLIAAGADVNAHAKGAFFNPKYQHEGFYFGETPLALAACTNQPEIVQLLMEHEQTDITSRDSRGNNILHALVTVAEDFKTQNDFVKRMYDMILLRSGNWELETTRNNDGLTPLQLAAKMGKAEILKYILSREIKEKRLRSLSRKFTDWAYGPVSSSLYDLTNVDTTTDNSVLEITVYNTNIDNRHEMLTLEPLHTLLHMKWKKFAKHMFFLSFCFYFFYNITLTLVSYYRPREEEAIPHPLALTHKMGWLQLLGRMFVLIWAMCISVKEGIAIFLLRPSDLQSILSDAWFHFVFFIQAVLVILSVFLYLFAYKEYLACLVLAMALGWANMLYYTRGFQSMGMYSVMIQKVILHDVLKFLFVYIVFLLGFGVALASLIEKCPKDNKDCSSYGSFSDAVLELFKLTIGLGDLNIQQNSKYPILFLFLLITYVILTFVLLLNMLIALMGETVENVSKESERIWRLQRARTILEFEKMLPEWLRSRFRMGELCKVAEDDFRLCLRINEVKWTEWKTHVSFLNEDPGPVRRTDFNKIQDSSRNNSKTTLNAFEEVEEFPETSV

Row | SMILES | IC50 (hTRPV3 [1]; [5]) | IC50 (hTRPV3 [1]; [6]) | IC50 (hTRPV3 [1]; [7]) | IC50 (hTRPV3 [1]; [8]) | solubility at 40 min [2] | half-life at 1 μM [3] | hTRPV3 HAMA IC50 (nM) (5 min) (hTRPV3 [4]; 5 min) | Solubility Ringer (nM) [2] | IC50 (hTRPV3 [4]; [9]) | IC50 (hTRPV3 [1]; hTRPV3 Patch P1 Inwd (nM)) | hTRPV3 HAMA IC50 (nM) (5 min) (hTRPV3 [4]) | hTRPV3 HAMA IC50 (nM) (30 min) (hTRPV3 [4]; 30 min) | IC50 (hTRPV3 [4]; [10]) | IC50 (hTRPV3 [1]; read-out: hTRPV3 (nM) (Phase 1))
1 | NC(=O)c1cc(Cl)ccc1N1CC[C@H](Oc2ccc(C(F)(F)F)cn2)C1 [Compound 1-31, (S)-5-chloro-2-(3-(5-(trifluoromethyl)pyridin-2-yloxy)pyrrolidin-1-yl)benzamide] | 100 to 1000 nM | ~883 nM | 100 to 1000 nM | 546 nM | > 16.8 µM | 34.3 min | no fit (5 min) | – | – | – | – | – | – | –
2 | NC(=O)c1cc(-c2ccccc2)ccc1N1CC[C@H](Oc2ccc(C(F)(F)F)cn2)C1 [Compound 1-32, (S)-4-(3-(5-(trifluoromethyl)pyridin-2-yloxy)pyrrolidin-1-yl)biphenyl-3-carboxamide] | 100 to 1000 nM | 285 nM | 100 to 1000 nM | 273 nM | – | 44.3 min | no fit (5 min) | BLQ | – | – | – | – | – | –
3 | OCc1cc(-c2ccccc2)ccc1N1CC[C@H](Oc2ccc(C(F)(F)F)cn2)C1 [Compound 1-115, (S)-(4-(3-(5-(trifluoromethyl)pyridin-2-yloxy)pyrrolidin-1-yl)biphenyl-3-yl)methanol] | 10 to 100 nM | 74.2 nM | 10 to 100 nM | 59 nM | 0.37 µM (≈ 0.153 µg/mL) | 45.8 min | – | – | > 20000 nM and 5860 nM | – | – | – | – | –
4 | CC(O)c1cc(-c2ccccc2)ccc1N1CC[C@H](Oc2ccc(C(F)(F)F)cn2)C1 (stereo partly drawn) [Compound 1-121, 1-(4-((S)-3-(5-(trifluoromethyl)pyridin-2-yloxy)pyrrolidin-1-yl)biphenyl-3-yl)ethanol] | 10 to 100 nM | 102 nM | – | – | – | 33.3 min | no fit (5 min) | BLQ | – | – | – | – | – | –
5 | NC(=O)c1cc(Oc2ccccc2)ccc1N1CC[C@H](Oc2ncccc2Cl)C1 [Compound 1-129] | – | – | – | – | – | 6.42 min | – | – | – | 100 to 1000 nM | no fit (5 min) | – | – | –
6 | NC(=O)c1cc(C(=O)c2ccccc2)ccc1N1CC[C@H](Oc2ccc(C(F)(F)F)cn2)C1 [Compound 1-130, (S)-5-benzoyl-2-(3-(5-(trifluoromethyl)pyridin-2-yloxy)pyrrolidin-1-yl)benzamide] | > 1000 nM | 1540 nM | – | – | ~12.2 µM (≈ 5.56 µg/mL) | 67 min | no fit (5 min) | – | – | – | – | – | – | –
7 | Cc1cccnc1O[C@H]1CCN(c2ccc(-c3ccccc3)cc2CO)C1 [Compound 1-131, (S)-(4-(3-(3-methylpyridin-2-yloxy)pyrrolidin-1-yl)biphenyl-3-yl)methanol] | 100 to 1000 nM | 148 nM | – | – | ~0.62 µM (≈ 0.223 µg/mL) | 23.5 min | no fit (5 min) | – | – | – | – | – | – | –
8 | OCCOc1cc(-c2ccccc2)ccc1N1CC[C@H](Oc2ccc(C(F)(F)F)cn2)C1 [Compound 1-135, (S)-2-(4-(3-(5-(trifluoromethyl)pyridin-2-yloxy)pyrrolidin-1-yl)biphenyl-3-yloxy)ethanol] | 100 to 1000 nM | 765 nM | – | – | 0.19 µM (≈ 0.0844 µg/mL) | 69.7 min | no fit (5 min) | – | – | – | – | – | – | –
9 | NC(=O)c1cc(C(O)c2ccccc2)ccc1N1CC[C@H](Oc2ncccc2Cl)C1 (stereo partly drawn) [Compound 1-137, 2-((S)-3-(3-chloropyridin-2-yloxy)pyrrolidin-1-yl)-5-(hydroxy(phenyl)methyl)benzamide] | > 1000 nM | 2980 nM | – | – | > 17.7 µM | 8.72 min | no fit (5 min) | – | – | – | – | – | – | –
10 | NC(=O)c1cc(C(=O)c2ccccc2)ccc1N1CC[C@@H](Oc2ccc(C(F)(F)F)cn2)C1 [Compound 1-154, (R)-5-benzoyl-2-(3-(5-(trifluoromethyl)pyridin-2-yloxy)pyrrolidin-1-yl)benzamide] | > 1000 nM | 3040 nM | – | – | – | 54.5 min | no fit (5 min) | – | – | – | – | – | – | –
11 | CCOc1ccccc1-c1ccc(N2CC[C@H](Oc3ccc(C(F)(F)F)cn3)C2)c(CO)c1 [Compound 1-162, (S)-(2′-ethoxy-4-(3-(5-(trifluoromethyl)pyridin-2-yloxy)pyrrolidin-1-yl)biphenyl-3-yl)methanol] | 10 to 100 nM | 101 nM | – | – | – | 22.8 min | no fit (5 min) | – | – | – | – | – | – | –
12 | OCc1ccc(-c2ccccc2)cc1N1CC[C@H](Oc2ccc(C(F)(F)F)cn2)C1 [Compound 1-180, (S)-(3-(3-(5-(trifluoromethyl)pyridin-2-yloxy)pyrrolidin-1-yl)biphenyl-4-yl)methanol] | > 1000 nM | 1550 nM | > 1000 nM | 1860 nM | ~0.2 µM (≈ 0.0829 µg/mL) | – | no fit (5 min) no fit (30 min) | – | – | – | – | no fit (5 min) no fit (30 min) | – | –
13 | NC(=O)c1cc(Oc2ccccc2Cl)ccc1N1CC[C@H](Oc2ncccc2Cl)C1 [Compound 1-181, (S)-5-(2-chlorophenoxy)-2-(3-(3-chloropyridin-2-yloxy)pyrrolidin-1-yl)benzamide] | 100 to 1000 nM | 571 nM | 100 to 1000 nM | 834 nM | – | 8.96 min | no fit (5 min) | – | – | – | – | – | – | –
14 | Cc1ccccc1-c1ccc(N2CC[C@H](Oc3ccc(C(F)(F)F)cn3)C2)c(CO)n1 [Compound 1-182, (S)-(6-o-tolyl-3-(3-(5-(trifluoromethyl)pyridin-2-yloxy)pyrrolidin-1-yl)pyridin-2-yl)methanol] | > 1000 nM | > 3200 nM | – | – | ~0.8 µM (≈ 0.344 µg/mL) | – | – | – | 19900 nM | – | – | – | 4600 nM | –
15 | COc1ccccc1-c1ccc(N2CC[C@H](Oc3ccc(C(F)(F)F)cn3)C2)c(CO)n1 [Compound 1-183, (S)-(6-(2-methoxyphenyl)-3-(3-(5-(trifluoromethyl)pyridin-2-yloxy)pyrrolidin-1-yl)pyridin-2-yl)methanol] | – | – | > 1000 nM | > 3200 nM | 0.84 µM (≈ 0.374 µg/mL) | – | no fit (5 min) no fit (30 min) | – | – | – | – | no fit (5 min) no fit (30 min) | – | –
16 | Cc1ccc(O[C@H]2CCN(c3ccc(-c4ccccc4CN(C)C)cc3CO)C2)nc1 [Compound 1-219, (S)-(2′-((dimethylamino)methyl)-4-(3-(5-methylpyridin-2-yloxy)pyrrolidin-1-yl)biphenyl-3-yl)methanol] | – | – | – | – | > 20 µM | – | no fit (5 min) no fit (30 min) | – | – | > 1000 nM | – | no fit (5 min) no fit (30 min) | – | > 3200 nM
17 | CCc1ccccc1Oc1ccc(N2CC[C@H](Oc3ncccc3Cl)C2)c(CCO)c1 [Compound 1-236, (S)-2-(2-(3-(3-chloropyridin-2-yloxy)pyrrolidin-1-yl)-5-(2-ethylphenoxy)phenyl)ethanol] | < 10 nM | 8.27 nM | – | – | – | – | no fit | BLQ | – | – | – | – | 5900 nM | –
18 | OCCc1cc(Oc2ccccc2Cl)ccc1N1CC[C@H](Oc2ncccc2Cl)C1 [Compound 1-238, (S)-2-(5-(2-chlorophenoxy)-2-(3-(3-chloropyridin-2-yloxy)pyrrolidin-1-yl)phenyl)ethanol] | 10 to 100 nM | ~51 nM | – | – | – | – | – | BLQ | > 20000 nM | – | – | – | 16700 nM | –
